In article PMC5773487, “Harnessing insulin- and leptin-induced oxidation of PTP1B for therapeutic development” (Nature Communications, 2018):
“Also recorded” adds a separate entry of the source.

T1: reduced PTP1B (Homo sapiens, UniProt P18031)
T1 construct: Purified PTP1B (1–321) (100 nM) was mixed with increasing concentrations of H2O2; 6xHis (C); made in house; host or cells: E. coli BL21 (DE3)-RIL
T1 sequence (P18031 1-321): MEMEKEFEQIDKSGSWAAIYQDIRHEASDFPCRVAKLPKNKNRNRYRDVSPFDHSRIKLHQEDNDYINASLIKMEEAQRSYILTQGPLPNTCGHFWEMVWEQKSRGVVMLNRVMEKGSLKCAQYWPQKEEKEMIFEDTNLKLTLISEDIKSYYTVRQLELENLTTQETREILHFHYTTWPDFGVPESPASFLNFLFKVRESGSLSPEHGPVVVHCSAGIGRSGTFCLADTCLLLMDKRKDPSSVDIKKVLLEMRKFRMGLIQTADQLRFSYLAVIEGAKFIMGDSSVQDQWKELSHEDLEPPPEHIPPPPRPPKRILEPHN

T2: PTP1B-OX (Homo sapiens, UniProt P18031)
T2 construct: Purified PTP1B (1–321) (100 nM) was mixed with increasing concentrations of H2O2; 6xHis (C); made in house; host or cells: E. coli BL21 (DE3)-RIL
T2 sequence (P18031 1-321): T1 sequence (P18031 1-321)

B1: scFv45: recombinant conformation-sensor single-chain variable fragment antibody recognizing oxidized PTP1B (antibody, V domains shown)
VH: TVTLDESGGGLQAPGGALSLVCKASGFTFSSYDMGWIRQAPGKGLEYVAGITDNGRYASYGSAVDGRATISRDNGQSSVRLQLNNLRAEDTGTYYCARDDGSGWTGNSIDAWGHGTEVIVSE
VL: ALTQPSSVSANPGGTVKITCSGSSSAYGYGWYQQKSPGSAPVTVIYNNNKRPSNIPSRFSGSKSGSTGTLTITGVQAEDEAVYFCGSEDSSTDAIFGAGTTLTVL

How the values were obtained:
reduced PTP1B = biological target: T1, reduced PTP1B; assay: phosphatase activity of reduced PTP1B, DiFMUP substrate; type: biochemical
Experimental: Fig. 4 Identification and characterization of small molecules that mimic the effect of scFv45. a Reversibly oxidized PTP1B (PTP1B-OX) was generated by incubation with H2O2 in vitro, desalted, then assayed (20 nM) in the presence and absence of individual members of the LOPAC library. In the right panel, each dot represents an activity measurement. […] Data are representative of at least two independent experiments (n = 2). b Increasing concentration of sanguinarine was tested against reduced (circle) and oxidized (square) forms of PTP1B, using DiFMUP as substrate. c Increasing concentration of levamisole was tested against reduced (circle) and oxidized (square) PTP1B, using DiFMUP as substrate. d PTP1B-OX (200 nM) was incubated with sanguinarine (25 µM) for 5 min and the complex was diluted 100-fold and the activity was monitored for 120 min continuously. e PTP1B-OX (200 nM) was incubated with levamisole (40 µM) for 5 min and the complex was diluted 100-fold and the activity was monitored for 120 min continuously. f Increasing concentration of chelerythrine, an analog of sanguinarine, was tested against reduced (circle) and oxidized (square) forms of PTP1B, using DiFMUP as substrate. […] Individual data points represent the mean obtained from three separate experiments (n = 3; b–g)
(§1) Purified PTP1B (1–321) (100 nM) was mixed with increasing concentrations of H2O2 (0.05–100 mM) in phosphatase assay buffer (50 mM HEPES, pH 7.0, 100 mM NaCl, 0.1% BSA) at room temperature for 5 min. From this reaction mixture PTP1B (10 nM) was used to monitor phosphatase activity using DiFMUP as the substrate, with or without 5 mM TCEP. Activity of each sample was compared to that of the untreated PTP1B in the presence of 5 mM TCEP.

PTP1B-OX = biological target: T2, PTP1B-OX; assay: reduction and reactivation of reversibly oxidized PTP1B by TCEP, DiFMUP substrate; type: biochemical; conditions: for inhibition of reduction and reactivation (stabilization) of PTP1B-OX: in words
Experimental: Therefore, our approach has been to adapt this assay, which we used to screen for conformation-sensor scFvs[17], now to screen for small molecules that act through a similar mechanism. Our primary screening assay tested the ability of small molecule inhibitors to antagonize the reduction and reactivation of the oxidized conformation of PTP1B, similar to that of scFv45 (Fig. 4a).
as §1
To screen the LOPAC library against PTP1B-OX, 0.5 μl of 1 mM compound in 100% DMSO was added to 384-well plates, resulting in a final compound concentration of 10 μM for the primary screen. Recombinant PTP1B (100 nM) was reversibly oxidized and inactivated with H2O2 (4 mM). The phosphatase activity was restored by a quick buffer exchange and addition of reducing agent (TCEP). PTP1B-OX was incubated with LOPAC compounds (10 μM) in the assay buffer (50 mM HEPES pH 7.0, 100 mM NaCl, 0.005% Tween, 2 mM EDTA) and the effect of individual compound on stabilizing the reversibly oxidized conformation was assessed by the phosphatase assay under reducing conditions using DiFMUP as substrate. scFv45 was used as positive control.

[1] = tested on: insulin signaling in 293T cells; assay: insulin signaling in 293T cells (immunoblot); type: cell-based; conditions: for insulin-induced activation of AKT (pThr308) / insulin-induced phosphorylation of insulin receptor β-subunit (IR-β): 293T cells, compound 2 μM 1 h, insulin 25 nM
Experimental: To study the effect of chelerythrine and protopine on insulin signaling we used 293T cells (ATCC) and cultured in DMEM containing 10% FBS. For insulin signaling, cells were serum starved for 16 h and then treated with chelerythrine (2 µM) or protopine (2 µM) for 1 h. Following which, cells were treated with 25 nM insulin for various times (0, 5, 10, 20 min) at 37 °C. Cells were washed with PBS and lysed in de-gassed RIPA lysis buffer (25 mM HEPES pH 7.5, 150 mM NaCl, 0.25% Deoxychloate, 10% Glycerol, 25 mM NaF, 10 mM MgCl2, 1 mM EDTA, 1% Triton X-100, 0.5 mM PMSF, 10 mM Benzamidine, cOmplete protease inhibitor cocktail (Roche)). Soluble proteins were harvested by centrifugation at 13,000×g for 10 min at 4 °C and quantitated. Total proteins in the cell lysates were separated by SDS-PAGE and tyrosyl phosphorylation of the IR-β subunit and downstream AKT activation was monitored. To test the effect of suppressing H2O2 levels on the function of the compounds, catalase was ectopically expressed in cells for 24 h. Following which, the cells were treated with the compounds as mentioned above. […] Catalase expression was detected in the cell samples with a rabbit polyclonal antibody (Abcam, ab52477).
Mammalian expression plasmids used in this study were as follows: pCMV-FLAG and pCMV-FLAG-PTP1B (wt and -mut2). Empty vector, FLAG-PTP1B-wt, or FLAG-PTP1B-mut2 were transfected into 293T cells for 24 h, following which, cells were serum starved for 8 h and then treated with chelerythrine (2 µM) for 1 h. Subsequently, cells were treated with 10 nM insulin for various times (0, 10, 20 min) at 37 °C. Cells were washed with PBS and lysed in de-gassed RIPA lysis buffer (25 mM HEPES pH 7.5, 150 mM NaCl, 0.25% Deoxycholate, 10% Glycerol, 25 mM NaF, 10 mM MgCl2, 1 mM EDTA, 1% Triton X-100, 0.5 mM PMSF, 10 mM Benzamidine, cOmplete protease inhibitor cocktail (Roche)). Soluble proteins were harvested by centrifugation at 13,000×g for 10 min at 4 °C and quantitated. Total proteins in the cell lysates were separated by SDS-PAGE and tyrosyl phosphorylation of the IR-β subunit was analyzed by immunoblotting.

Molecule | inhibition of the reduced form of PTP1B (reduced PTP1B) | IC50 relative to sanguinarine (PTP1B-OX) | preference for PTP1B-OX over reduced PTP1B (PTP1B-OX) | Ki (PTP1B-OX; DiFMUP substrate) [µM] | IC50 (PTP1B-OX; wild-type PTP1B-OX, reactivation by TCEP, DiFMUP substrate, read-out: IC50 against PTP1B-OX) [µM] | basal signaling in the absence of insulin or leptin [1] | stimulatory effect on IR-β phosphorylation and AKT activation upon catalase overexpression ([1]; 293T cells expressing catalase, 2 μM) | insulin-induced activation of AKT (pThr308) [1] | insulin-induced phosphorylation of insulin receptor β-subunit (IR-β) [1] | insulin signaling in cells expressing PTP1B-mut2 ([1]; 293T, 2 μM, insulin 10 nM) | insulin signaling in control and PTP1B-wt expressing cells ([1]; 293T, 2 μM, insulin 10 nM) | observed cellular efficacy ([1]; reviewer's remark in peer review file) [µM] | inhibition of reduction and reactivation (stabilization) of PTP1B-OX (PTP1B-OX)
COc1ccc2c(c[n+](C)c3c4cc5c(cc4ccc23)OCO5)c1OC [chelerythrine] | no apparent inhibition; also recorded: did not inhibit | fivefold lower | at least 100 fold | 5 | 5 | no impact | ablated | enhanced | enhanced and sustained phosphorylation | insensitive | elevated insulin signaling | < 2 | –
CN1CCc2cc3c(cc2C(=O)Cc2ccc4c(c2C1)OCO4)OCO3 [protopine] | did not inhibit; also recorded: ineffective | – | – | – | – | – | – | no significant effect | no significant effect | – | – | – | did not inhibit; also recorded: ineffective; also recorded: did not stabilize
B1 | – | – | – | – | – | – | – | – | – | – | – | – | impaired in a dose-dependent manner
